In article PMC4043309 (Journal of medicinal chemistry, 2013):

How the values were obtained:
Stabilities = format: physicochemical; details: for stability: isomerization on storage: methanol or methanol–chloroform mixture (v/v 1:1) as solvent
[1] = target: T1, recombinant human estrogen receptor-α (ER-α) (Homo sapiens, UniProt P03372); format: binding; details: at 100 μM compound
T1 sequence (P03372 1-595): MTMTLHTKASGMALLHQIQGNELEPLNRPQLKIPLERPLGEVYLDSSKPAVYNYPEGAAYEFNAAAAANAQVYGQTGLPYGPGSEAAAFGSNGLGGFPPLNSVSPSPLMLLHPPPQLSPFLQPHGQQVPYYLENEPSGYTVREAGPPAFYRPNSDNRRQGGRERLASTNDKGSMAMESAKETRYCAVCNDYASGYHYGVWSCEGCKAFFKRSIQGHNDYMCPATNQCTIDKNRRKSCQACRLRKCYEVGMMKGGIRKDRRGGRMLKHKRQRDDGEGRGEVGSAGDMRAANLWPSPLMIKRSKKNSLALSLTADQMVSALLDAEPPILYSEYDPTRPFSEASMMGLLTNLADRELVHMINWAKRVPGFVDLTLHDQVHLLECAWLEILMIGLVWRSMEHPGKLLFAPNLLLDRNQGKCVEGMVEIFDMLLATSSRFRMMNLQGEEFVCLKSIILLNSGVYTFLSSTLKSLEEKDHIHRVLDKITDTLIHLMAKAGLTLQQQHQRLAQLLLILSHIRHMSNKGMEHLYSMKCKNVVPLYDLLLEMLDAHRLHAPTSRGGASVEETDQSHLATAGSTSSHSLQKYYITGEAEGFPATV

[2] = target: recombinant human estrogen receptor-β (ER-β) (Homo sapiens, UniProt Q92731); format: binding; details: at 100 μM compound
Chain of recombinant human estrogen receptor-β (ER-β) (Q92731 whole entry): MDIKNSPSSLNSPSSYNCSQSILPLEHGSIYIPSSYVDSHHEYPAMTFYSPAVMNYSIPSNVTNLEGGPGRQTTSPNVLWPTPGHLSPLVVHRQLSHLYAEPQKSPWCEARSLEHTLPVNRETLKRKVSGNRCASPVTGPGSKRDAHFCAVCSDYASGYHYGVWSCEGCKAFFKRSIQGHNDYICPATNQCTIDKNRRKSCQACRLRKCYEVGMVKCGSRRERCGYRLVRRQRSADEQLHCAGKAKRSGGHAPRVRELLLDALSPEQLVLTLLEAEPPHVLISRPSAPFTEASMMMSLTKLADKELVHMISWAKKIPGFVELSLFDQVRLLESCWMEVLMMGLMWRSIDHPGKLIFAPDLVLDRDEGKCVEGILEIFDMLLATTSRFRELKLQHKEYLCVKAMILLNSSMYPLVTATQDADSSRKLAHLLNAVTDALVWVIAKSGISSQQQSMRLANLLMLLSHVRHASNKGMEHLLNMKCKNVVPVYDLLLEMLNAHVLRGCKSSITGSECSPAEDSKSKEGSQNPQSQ

[3] = target: T2, recombinant human aromatase (CYP19) (Homo sapiens, UniProt P11511); test: Inhibition of recombinant human aromatase
T2 sequence (P11511 1-503): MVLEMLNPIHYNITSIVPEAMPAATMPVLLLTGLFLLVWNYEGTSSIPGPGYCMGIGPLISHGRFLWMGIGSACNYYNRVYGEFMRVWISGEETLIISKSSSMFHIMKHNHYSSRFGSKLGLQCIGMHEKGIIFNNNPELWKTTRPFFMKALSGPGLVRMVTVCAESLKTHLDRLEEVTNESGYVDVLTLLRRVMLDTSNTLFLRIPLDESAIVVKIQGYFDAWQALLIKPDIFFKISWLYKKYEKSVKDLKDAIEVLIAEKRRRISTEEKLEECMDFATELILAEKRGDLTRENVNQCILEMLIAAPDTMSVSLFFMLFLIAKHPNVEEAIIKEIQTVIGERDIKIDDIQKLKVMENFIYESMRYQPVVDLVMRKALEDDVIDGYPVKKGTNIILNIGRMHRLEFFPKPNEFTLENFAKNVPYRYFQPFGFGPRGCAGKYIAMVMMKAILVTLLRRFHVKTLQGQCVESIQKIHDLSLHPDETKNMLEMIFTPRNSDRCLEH

| Compound | stability: isomerization to mixed (E,Z)-norendoxifen (Stabilities; chloroform (or dichloromethane) as the single solvent) | ER-α percent competition [1] | ER-β percent competition [2] | fold less potent against aromatase than mixed (E,Z)-norendoxifen [3] | stability: isomerization on storage (Stabilities) |
| --- | --- | --- | --- | --- | --- |
| CC/C(=C(/c1ccc(O)cc1)c1ccc(OCCN)cc1)c1ccccc1 [E-4, (E)-4-(1-(4-(2-Aminoethoxy)phenyl)-2-phenylbut-1-enyl)phenol] | – | – | – | – | stored for at least a few weeks without substantial isomerization |
| CC/C(=C(\c1ccc(O)cc1)c1ccc(OCCN)cc1)c1ccccc1 [Z-4, (Z)-4-(1-(4-(2-Aminoethoxy)phenyl)-2-phenylbut-1-enyl)phenol] | fast isomerization | – | – | – | stored for at least a few weeks without substantial isomerization |
| CCC(=C(c1ccc(O)cc1)c1ccc(O)cc1)c1ccccc1 [compound 2, 4,4′-(2-Phenylbut-1-ene-1,1-diyl)diphenol] | – | 80% competition | – | – | – |
| CC/C(=C(\c1ccc(O)cc1)c1ccc(OCC(N)=O)cc1)c1ccccc1 [compound 3, (E,Z)-2-(4-(1-(4-Hydroxyphenyl)-2-phenylbut-1-enyl)phenoxy)-acetamide] | – | 57% competition | 71% competition | 90 fold | – |

Second part, led by results:

| stability: isomerization to mixed (E,Z)-norendoxifen (Stabilities; chloroform (or dichloromethane) as the single solvent) | ER-α percent competition [1] | ER-β percent competition [2] | fold less potent against aromatase than mixed (E,Z)-norendoxifen [3] | Compound | stability: isomerization on storage (Stabilities) |
| --- | --- | --- | --- | --- | --- |
| – | 68% competition | 68% competition | – | CC/C(=C(/c1ccc(O)cc1)c1ccc(OC(=O)C(C)(C)C)cc1)c1ccccc1 [compound 6, (E)-4-(1-(4-Hydroxyphenyl)-2-phenylbut-1-enyl)phenyl Pivalate] | – |
| – | 56% competition | 45% competition | – | CC/C(=C(/c1ccc(OCC(N)=O)cc1)c1ccc(OC(=O)C(C)(C)C)cc1)c1ccccc1 [compound 7, (E)-4-(1-(4-(2-Amino-2-oxoethoxy)phenyl)-2-phenylbut-1-enyl)-phenyl Pivalate] | – |
